# Legend:
# TTD–PHD (UHRF1_126–366) = target: T1, TTD–PHD (UHRF1_126–366) (Homo sapiens, UniProt Q96T88); assay: SES ensemble fitting of SAXS data of TTD–PHD with BPC
# T1 construct: His tag (TEV-cleavable) (N); made in house
# T1 sequence (Q96T88 126-366): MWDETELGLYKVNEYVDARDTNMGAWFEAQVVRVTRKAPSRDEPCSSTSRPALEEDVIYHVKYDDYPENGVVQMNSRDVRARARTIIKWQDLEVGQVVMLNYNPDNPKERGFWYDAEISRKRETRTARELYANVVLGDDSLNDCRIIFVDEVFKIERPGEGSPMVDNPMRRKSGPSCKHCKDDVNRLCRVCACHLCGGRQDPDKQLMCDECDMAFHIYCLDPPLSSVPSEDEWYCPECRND
# Source text: The Rg-based Kratky plot is shifted to higher coordinate values with respect to its position for apo TTD–PHD (supplemental Fig. S4). […] We performed SES fitting of SAXS data collected for TTD–PHD in the presence of BPC using MDPIN/OUT. The optimal ensemble, OEBPC(SAXS), fits the data reasonably well in the q range of 0 < q < 0.2. The Rg distribution is bimodal with the major peak at ∼25 Å and a minor peak at ∼34 Å (Fig. 4D). […] These less-compact, “linker-out” conformers should be unable to bind to H3K9me3 peptides in a cooperative manner (as in PDB code 3ASK ([10], [23])) and, in addition, be unable to bind via the isolated TTD because groove-H3K9me3 contacts found to be essential for this binding mode, as reported by Nady et al. ([9]), are blocked.
# We used an ensemble approach for the structural characterization of the TTD–PHD in solution by utilizing the SES protocol ([18]). The strategy on which the SES method is based consists of two main steps: 1) generate the initial ensemble of conformations to approximate the conformational space available for a system in solution and 2) find the optimal population weight for each member of the initial ensemble that minimizes the discrepancy between the ensemble-predicted and the observed experimental data. The goodness of the ensemble fit is measured as χ^2. […] The ARMOR output was analyzed to select the optimal ensemble size using the l-curve ([18]), and the vector of the optimal weights, w, was calculated by averaging over top near optimal solutions with similar value of χ^2. […]
# PHD = assay: NMR titration of PHD with BPC; type: binding
# Description: NMR samples were buffered in 20 mM sodium phosphate (pH 7.5), 150 mM NaCl, 5 mM DTT, 5 mM β-mercaptoethanol, 2 mM TCEP, and 10 μM ZnSO4. The protein concentration was between 200 and 300 μM for all samples. The data were collected at 25 °C on Bruker spectrometers equipped with cryoprobes and operating at 500, 600, or 800 MHz. The assignment of backbone TTD–PHD resonances was accomplished using the ABACUS method ([29]) for which standard backbone and ^15N-edited NOESY spectra were collected using ^15N/^13C/^2H- or ^15N/^13C-labeled protein. All 3D experiments were acquired using non-uniform sampling and processed using the software MDDGUI ([30]) or qMDD ([31]). ^15N-Labeled TTD–PHD was used to acquire ^15N T1 and T2 relaxation and ^1H-^15N heteronuclear NOE measurements ([32]) collected using standard Bruker pulse schemes in an interleaved manner. For T1 measurements, the variable delay was set to 0.1, 0.4, 0.8, 1.5, 2.0, 2.5, 3.5, and 5 s. For T2 measurements, the variable delay was set to 16, 32, 48, 64, 80, 96, 128, and 144 ms. The D1 was 3 s for all experiments. Reported values were the average from two measurements. All spectra were processed using NMRPipe ([33]) and analyzed with SPARKY ([34]). […]
# trated by the perturbation of I211, I212 and E281 resonances in HSQC spectra of the TTD in a competition assay. […]
# solubility (statement) = type: physicochemical
# [1] = SES fitting using MDPIN/OUT, TTD–PHD with BPC
compound,measurement,setting,value
"N=C(N)N1CCC(Cc2ccccc2)CC1 [BPC, 4-benzylpiperidine-1-carboximidamide]",contribution of linker-bound structures to OEBPC(SAXS),"TTD–PHD (UHRF1_126–366); 6,000 starting structures with linker bound to groove",zero contribution
same,"Rg distribution of OEBPC(SAXS), major peak",TTD–PHD (UHRF1_126–366); [1],~25 Å
same,"Rg distribution of OEBPC(SAXS), minor peak",TTD–PHD (UHRF1_126–366); [1],~34 Å
same,effect on PHD resonances,"PHD; 3 mM BPC, 5% DMSO (12:1)",unaffected
same,interaction with PHD,PHD; separate NMR titration with PHD,no interaction
same,solubility,solubility (statement),highly soluble

# From article PMC5743070 (The Journal of Biological Chemistry, 2017)
